Test [1] deals with HCC827GR cells. As to the kind of experiment: MTT viability with Z-VAD-FMK, HCC827GR. The test is classed as cell-based, human. The following applies: Z-VAD-FMK 12 µM, 3 h; DBG 48 h. As for the experimental part:
(§1) All culture media were supplemented with FBS (10 %) and P/S (1 %), and the cells were grown at 37 °C in 5 % CO2.
(§2) The cells were treated with MTT and incubated for 2 h. The supernatants were removed, and the remaining formazan crystals were dissolved in DMSO before absorbance measurement at 570 nm using a Multiscan GO spectrophotometer (Thermo Fisher Scientific, Vantaa, Finland).

Test [2] concerns HCC827 cells. As to the kind of experiment: MTT viability with Z-VAD-FMK, HCC827. The test is classed as cell-based, human. As to the method:
as §1, §2

The test system of test [3] is HCC827GR cells. The experiment in a line: Soft agar anchorage-independent growth, HCC827GR. In kind it is cell-based, human. The following applies: 2 weeks; for colony number, Control % / colony size, Control %: GEF 1 μM, SAV 2 nM or both. As for the experimental part: (§3) The anchorage-independent cell growth assay was performed in 6-well plates with dual agar layers containing 0.6 % agar (lower layer) and 0.3 % agar (upper layer) supplemented with BME, 2 mM L-glutamine, 5 μg/ml gentamicin, and 10 % FBS. After 2 weeks of incubation, the number of colonies was assessed using a microscope (Leica, Wetzlar, Germany), and the mean colony area was analyzed using i-Solution ^TM software (Vancouver, BC, Canada).

The subject of test [4] is HCC827GR cells. The following applies: GEF 1 μM, SAV 2 nM or both. As for the experimental part: as §1, §2
A further test relates to HaCaT cells. The following applies: GEF 1 μM, SAV 2 nM or both. As for the experimental part: as §1, §2
The subject of test [5] is HCC827 cells. The following applies: GEF 1 μM, SAV 2 nM or both. As to the method: as §1, §2
The test system of test [6] is HCC827 cells. As to the kind of experiment: Soft agar anchorage-independent growth, HCC827. The test is classed as cell-based, human. The following applies: 2 weeks; GEF 1 μM, SAV 2 nM or both. As for the experimental part: as §3
Another test has as its system p-MET. As to the kind of experiment: Immunoblot p-MET with NAC pretreatment, HCC827 and HCC827GR cells. The test is classed as cell-based, human. The following applies: NAC 4 mM; for p-MET protein Ratio: control = 1.00. As to the method: (§4) HaCaT cells were grown in DMEM, whereas HCC827 and HCC827GR cells were grown in RPMI 1640. All culture media were supplemented with FBS (10 %) and P/S (1 %), and the cells were grown at 37 °C in 5 % CO2.
(§5) Cells were lysed in RIPA buffer, and protein concentration was determined using a Bio-Rad DC Protein Assay kit (Bio-Rad, Hercules, CA, USA). Protein samples from the cell lysates were resolved by sodium dodecyl sulfate-polyacrylamide gel electrophoresis and then transferred onto polyvinylidene fluoride membranes. The membranes were blocked with 3 % or 5 % skim milk and then incubated at 4 °C overnight with the indicated primary antibodies, followed by the corresponding horseradish peroxidase-conjugated secondary antibodies at RT for 2 h. Protein bands were visualized using western blotting luminol reagent solution and ImageQuant LAS 500 (GE Healthcare, Uppsala, Sweden). The density of the bands was quantified using ImageJ software (NIH, Bethesda, MD, USA).

The subject of a further test is p-AKT. As to the kind of experiment: Immunoblot p-AKT with NAC pretreatment, HCC827 and HCC827GR cells. The test is classed as cell-based, human. The following applies: NAC 4 mM; for p-AKT protein Ratio: control = 1.00. As for the experimental part: as §4, §5
Test [7] deals with HCC827GR cells. As to the kind of experiment: MTT viability after NAC pretreatment, HCC827GR. The test is classed as cell-based, human. The following applies: HCC827GR, NAC 4 mM. As for the experimental part: as §1, §2
A further test relates to caspase-3. As to the kind of experiment: Immunoblot caspase-3 with NAC pretreatment, HCC827 and HCC827GR cells. The test is classed as cell-based, human. The following applies: for caspase3 protein/actin / caspase3 protein Ratio: NAC 4 mM; for caspase3 protein Ratio: control = 1.00. As to the method: as §4, §5
For orientation: A western blot detects proteins with antibodies after separation by electrophoresis.

Test [8] concerns HCC827 cells. As to the kind of experiment: MTT viability after NAC pretreatment, HCC827. The test is classed as cell-based, human. The following applies: HCC827, NAC 4 mM. As to the method: as §1, §2
Another test deals with p-EGFR. As to the kind of experiment: Immunoblot p-EGFR with NAC pretreatment, HCC827 and HCC827GR cells. The test is classed as cell-based, human. The following applies: NAC 4 mM; for p-EGFR protein Ratio: control = 1.00. As for the experimental part:
as §4, §5

Another test deals with PARP. As to the kind of experiment: Immunoblot PARP with NAC pretreatment, HCC827 and HCC827GR cells. The test is classed as cell-based, human. The following applies: for PARP protein/actin / PARP protein Ratio: NAC 4 mM; for PARP protein Ratio: control = 1.00. As to the method: as §4, §5
Setting [9] is: NAC 4 mM pretreatment, then DBG.

Like-named read-outs stand apart in the source and are kept apart here.

Four compounds from paper PMC11579512, “Deoxybouvardin-glucoside induces apoptosis in non-small cell lung cancer cells by targeting EGFR/MET and AKT signaling pathway” (EXCLI Journal, 2024) can be followed below.

Turning to “Z-Val-Ala-Asp-(OMe)-fluoromethyl ketone [Z-VAD-FMK]”, the “DBG-mediated inhibition of viability with Z-VAD-FMK” value with HCC827GR cells [1] is listed as “significantly recovered”; in the test on HCC827 cells [2] (Z-VAD-FMK 12 µM, 3 h, DBG 48 h), “significantly recovered”. In addition, the “DBG-induced apoptosis with Z-VAD-FMK” value in the test with HCC827 cells [2] (Z-VAD-FMK pretreatment, cell line not specified (NSCLC cells)) is reported as “prevented the DBG-induced apoptosis”.

What is called cell viability is a read-out of living cells in per cent, often relative to untreated cells. On to `C[C@@H](c1ccc2nccn2c1)n1nnc2ncc(-c3cnn(C)c3)nc21` [SAV, savolitinib, reference compound], for which, in the test on HCC827GR cells [3], the “colony number, Control %” value is 90.34%. Moreover, the results for the “colony size, Control %” value in the test on HCC827GR cells [3] and in the test on HCC827 cells [6] were 125.91% and 94.26%, respectively. Besides, the “colony formation, in words” value is “did not significantly alter the colony size and count” in the test on HCC827GR cells [3] (SAV 2 nM); “did not significantly alter the colony size and count” in the test on HCC827 cells [6]. The cell viability with HCC827GR cells [4] (24 h, mean, n=3) is 97.44%; in the test with HCC827GR cells [4] (24 h, replicate 1), 102.35%; in the test on HCC827GR cells [4] (24 h, replicate 2), 94.96%; with HCC827GR cells [4] (24 h, replicate 3) it was 95.02%; in the test on HCC827GR cells [4] (48 h, mean, n=3) it was 94.70%; in the test with HCC827GR cells [4] (48 h, replicate 1) it was 91.23%. Moreover, the cell viability is on record as 97.86% in the test on HCC827GR cells [4] (48 h, replicate 2); 95.02% with HCC827GR cells [4] (48 h, replicate 3); 98.31% in the test on HaCaT cells (24 h, mean, n=3); 97.97% in the test with HaCaT cells (24 h, replicate 1); 99.14% in the test on HaCaT cells (24 h, replicate 2); 97.82% in the test on HaCaT cells (24 h, replicate 3). For the same compound, the cell viability is 95.26% in the test with HaCaT cells (48 h, mean, n=3); 95.75% in the test on HaCaT cells (48 h, replicate 1); 95.82% in the test with HaCaT cells (48 h, replicate 2); 94.21% with HaCaT cells (48 h, replicate 3); 95.55% with HCC827 cells [5] (24 h, mean, n=3); 94.16% with HCC827 cells [5] (24 h, replicate 1). The cell viability in the test on HCC827 cells [5] (24 h, replicate 2) was 96.61%; in the test on HCC827 cells [5] (24 h, replicate 3) it was 95.89%; with HCC827 cells [5] (48 h, mean, n=3), 94.28%; in the test with HCC827 cells [5] (48 h, replicate 1), 94.71%; in the test on HCC827 cells [5] (48 h, replicate 2) it was 94.13%; in the test with HCC827 cells [5] (48 h, replicate 3), 94.00%.

For the compound `COc1cc2ncnc(Nc3ccc(F)c(Cl)c3)c2cc1OCCCN1CCOCC1` [GEF, gefitinib, reference compound], the “colony number, Control %” value in the test with HCC827GR cells [3] is recorded as 84.14%. Also, the “colony size, Control %” value in the test on HCC827GR cells [3] was found to be 98.13%. For the same compound, the cell viability was 102.64% with HCC827GR cells [4] (24 h, mean, n=3); 103.39% in the test on HCC827GR cells [4] (24 h, replicate 1); 100.47% with HCC827GR cells [4] (24 h, replicate 2); 104.06% with HCC827GR cells [4] (24 h, replicate 3); 96.35% with HCC827GR cells [4] (48 h, mean, n=3); 98.10% in the test on HCC827GR cells [4] (48 h, replicate 1). The cell viability in the test on HCC827GR cells [4] (48 h, replicate 2) came to 91.57%; in the test on HCC827GR cells [4] (48 h, replicate 3), 99.38%; in the test on HaCaT cells (24 h, mean, n=3) it was 65.33%; in the test with HaCaT cells (24 h, replicate 1), 65.07%; in the test with HaCaT cells (24 h, replicate 2), 64.14%; with HaCaT cells (24 h, replicate 3), 66.80%. Also, the cell viability with HaCaT cells (48 h, mean, n=3) amounted to 39.87%; in the test on HaCaT cells (48 h, replicate 1) it was 39.75%; with HaCaT cells (48 h, replicate 2) it was 40.25%; in the test on HaCaT cells (48 h, replicate 3), 39.62%.

In the case of `CC(=O)N[C@@H](CS)C(=O)O` [NAC, N-acetyl-L-cysteine, reference compound], the p-MET protein/actin in the test on p-MET (HCC827, control 1.17) is recorded as 0.89; in the test with p-MET (HCC827GR, control 1.14), 1.03. In addition, the “p-MET protein Ratio” value in the test with p-MET (HCC827) is 0.76; in the test with p-MET (HCC827GR) it was 0.91. Also, the p-AKT protein/actin in the test on p-AKT (HCC827, control 1.00) is reported as 0.79; in the test with p-AKT (HCC827GR, control 1.04), 0.95. Further, the entries for the “p-AKT protein Ratio” value in the test with p-AKT (HCC827) and in the test with p-AKT (HCC827GR) were 0.79 and 0.92, respectively. The “cell viability (relative to untreated = 100.00)” value in the test on HCC827GR cells [7] (mean of 3) is 99.78; in the test with HCC827GR cells [7] (replicate 1), 99.39; with HCC827GR cells [7] (replicate 2), 100.59; with HCC827GR cells [7] (replicate 3), 99.36; in the test with HCC827 cells [8] (mean of 3), 104.34; with HCC827 cells [8] (replicate 1) it was 105.47. In addition, the “cell viability (relative to untreated = 100.00)” value in the test with HCC827 cells [8] (replicate 2) was 103.68; with HCC827 cells [8] (replicate 3) it was 103.89. The caspase3 protein/actin was determined as 0.48 in the test with caspase-3 (HCC827, control 0.39) and 0.90 in the test on caspase-3 (HCC827GR, control 0.59). Further, the “caspase3 protein Ratio” value in the test on caspase-3 (HCC827) is reported as 1.23; in the test on caspase-3 (HCC827GR), 1.54. For the same compound, the “cleaved caspase-3 level” value in the test with caspase-3 (setting [9]) is “significantly prevented the increase”. Moreover, the p-EGFR protein/actin was found to be 0.68 in the test on p-EGFR (HCC827, control 0.90) and 0.93 in the test on p-EGFR (HCC827GR, control 0.93). Moreover, the “p-EGFR protein Ratio” value with p-EGFR (HCC827) is 0.76; with p-EGFR (HCC827GR), 1.00. Further, the PARP protein/actin in the test with PARP (HCC827, control 0.96) is on record as 1.00; in the test with PARP (HCC827GR, control 0.99), 1.32. For the same compound, the results for the “PARP protein Ratio” value in the test with PARP (HCC827) and with PARP (HCC827GR) were 1.04 and 1.33, respectively. The “cleaved PARP level” value with PARP (setting [9]) is “significantly prevented the increase”.
